The record followed here is US8318793B2, “Heterocyclic compounds and their use as glycogen synthase kinase-3 inhibitors” (Abbott GmbH & Co. KG, priority 2009, dated 2012).

Bounds are passed on as bounds.

The target in this assay is T1, human Glycogen Synthase Kinase-3 beta (hGSK-3β) (Homo sapiens, UniProt P49841).
T1 construct: purchased Upstate cell signaling solutions
T1 sequence (P49841 whole entry): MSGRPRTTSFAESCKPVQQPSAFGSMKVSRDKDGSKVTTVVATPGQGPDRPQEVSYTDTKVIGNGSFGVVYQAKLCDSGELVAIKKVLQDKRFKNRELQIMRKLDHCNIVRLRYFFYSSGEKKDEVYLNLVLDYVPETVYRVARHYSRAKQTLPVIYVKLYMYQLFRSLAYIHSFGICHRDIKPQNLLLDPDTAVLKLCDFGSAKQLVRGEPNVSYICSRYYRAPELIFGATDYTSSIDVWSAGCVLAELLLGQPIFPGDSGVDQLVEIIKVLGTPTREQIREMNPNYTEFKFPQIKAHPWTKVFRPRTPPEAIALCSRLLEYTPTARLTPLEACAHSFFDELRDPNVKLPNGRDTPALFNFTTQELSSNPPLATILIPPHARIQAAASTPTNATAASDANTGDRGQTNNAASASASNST
Kind of assay: Biochemical hGSK-3beta assay (33P-ATP phosphorylation of biotinylated peptide substrate). The settings on record: 10 μM ATP, 30 minutes at room temperature; read-out: GSK-3β IC50. Here is the method:
Methods—Biochemical hGSK-3beta Assay
Compounds were tested for their ability to inhibit human Glycogen Synthase Kinase-3 beta (hGSK-3β) to phosphorylate biotin-[…](pS)EDEEE. Compounds were incubated with 0.5 μCi 33P-ATP, 10 μM ATP, 0.0125U hGSK-3β (Upstate cell signaling solutions) and 1 μM substrate (biotin-[…](pS)EDEEE) in 50 mM HEPES, 10 mM MgCl2, […], 1 mM DTT, 0.0075% Triton, 2% DMSO (total volume 50 μL) for 30 minutes at room temperature. The incubation was stopped by addition of an equal volume of 100 mM EDTA, 4M NaCl. 80 μL of this mixture was added to streptavidin-coated Flashplates (PerkinElmer). Following a wash step, 33P incorporation was quantified on a MicroBeta microplate liquid scintillation counter (PerkinElmer). IC50's were determined by fitting a sigmoidal dose-response curve to the counts obtained at the different concentrations in GraphPad Prism.
Consider `N#Cc1ccc2[nH]c(O)c(-c3ccc(CN4CC[C@H]5CNC[C@H]54)cn3)c2c1` (stereo in doubt) [Example 5, 3-(5-(((3aS,6aS)-Hexahydropyrrolo[3,4-b]pyrrol-1(2H)-yl)methyl)-pyridin-2-yl)-2-hydroxy-1H-indole-5-carbonitrile], for which the IC50 is less than 100 nM. For `N#Cc1ccc2[nH]c(O)c(-c3ccc(CN4CC5COCC5C4)cn3)c2c1` (stereo not drawn) [Example 1, 3-(5-((Dihydro-1H-furo[3,4-c]pyrrol-5(3H,6H,6aH)-yl)methyl)pyridin-2-yl)-2-hydroxy-1H-indole-5-carbonitrile] the value was less than 100 nM; for `Oc1[nH]c2ncccc2c1-c1ccc(CN2CCOCC2)cn1` [Example 2, 3-(5-(Morpholinomethyl)-pyridin-2-yl)-1H-pyrrolo[2,3-b]pyridin-2-ol], 10000 to 100000 nM; for `Oc1[nH]c2cnccc2c1-c1ccc(CN2CCOCC2)cn1` [Example 3, 3-(5-(Morpholinomethyl)-pyridin-2-yl)-1H-pyrrolo[2,3-c]pyridin-2-ol], 100 to 10000 nM. In the case of `Oc1[nH]c2ccc(Br)nc2c1-c1ccc(CN2CCOCC2)cn1` [Example 4, 5-Bromo-3-(5-(morpholinomethyl)-pyridin-2-yl)-1H-pyrrolo[3,2-b]pyridin-2-ol] it was less than 100 nM. For `[O-][n+]1cc(CN2CCOCC2)ccc1-c1c(O)[nH]c2ccc(Br)nc12` [Example 4.1, 2-(5-Bromo-2-hydroxy-1H-pyrrolo[3,2-b]pyridin-3-yl)-5-(morpholinomethyl)-pyridine 1-oxide], the half-inhibitory concentration (IC50) is 100 to 10000 nM.
